Several values for one entry are separate records, joined by “and”; a condition that tells them apart may be missing. Equal values may be shown once. Entries after “also recorded” stand apart in the source; their conditions may differ.

Data set [1] can be described thus: Phase 1 study: iohexol plasma clearance as marker of GFR. The following applies: for Iohexol C0, arithmetic mean (CV%) / Iohexol CLsyst, arithmetic mean (CV%): iohexol iv. The format is in vivo, human.
Data set [2] in a line: Phase 1 study: endogenous markers of renal function. The class given is in vivo, human.
Data set [3] in a line: Phase 1 study: safety. The class given is in vivo, human. The following applies: by treatment period; healthy subjects.
For data set [4] the following is noted: cited from earlier work.
[5] abbreviates: treatment metformin + tucatinib, n = 17.
[6] abbreviates: combination treatment versus metformin alone.
[7] abbreviates: metformin alone or with tucatinib, n = 17.
Setting [8] is: urine 0-24 h, metformin 850 mg oral, alone or with tucatinib, n = 17.

In the case of `CC(=O)N(CC(O)CO)c1c(I)c(C(=O)NCC(O)CO)c(I)c(C(=O)NCC(O)CO)c1I` (stereo not drawn) [Iohexol], the “Iohexol C0, arithmetic mean (CV%)” value is reported as 178.5 (21.5) µg/mL in data set [1] (setting [5]) and 175.6 (18.0) µg/mL in data set [1] (treatment metformin, n = 17). The “Iohexol CLsyst, arithmetic mean (CV%)” value in data set [1] (setting [5]) is given as 129.0 (22.0) mL/min; in data set [1] (treatment metformin, n = 17), 129.8 (22.7) mL/min.

As a reminder, the Tmax is the time from dosing to the highest level. The Cmax is the highest concentration seen after dosing. Consider `CN(C)C(=N)N=C(N)N` [Metformin], for which, in data set [1] (calculated from iohexol plasma clearance, n = 17), the “GFR, arithmetic mean (CV%)” value was 94.99 (17.4) mL/min/1.73 m^2. For the same molecule, in data set [2] (setting [6]), the “Mean eGFR derived from cystatin C, 12 hours postdose” value turned out to be 97.9 mL/min/1.73 m^2 and the “Mean eGFR derived from cystatin C, premetformin dose” value was found to be 101.4 mL/min/1.73 m^2. For the same molecule, the “Mean CrCl 24 hours postdose” value in data set [2] (day 2 (after metformin alone) versus day 9 (in the presence of tucatinib)) is 152.3 mL/min. Besides, the “Mean cystatin C concentration prior to metformin dosing” value in data set [2] (metformin alone (day 1) versus tucatinib coadministration (day 8)) is listed as 0.846 mg/L. Further, the “Mean cystatin C concentration 12 hours postmetformin dosing” value in data set [2] (metformin alone versus metformin and tucatinib) came out at 0.881 mg/L. Moreover, the “Proportion of subjects who experienced TEAEs” value in data set [3] came to 38.9%. In addition, the Tmax (human, plasma, oral, 850 mg) is 1.5 to 4 h. Where the note is “human, plasma, po, 850 mg”, the concentration peaked (Cmax) at 1300 ng/mL. Further, the “Metformin CLrenal, arithmetic mean (CV%)” value (metformin 850 mg oral, alone or with tucatinib 300 mg twice daily, n = 17) is on record as 30.0 (27.0) L/h. Further, under setting [7], the “Metformin CL/F, geometric LSM” value turned out to be 102.0 L/h and the “Metformin VzF, geometric LSM” value worked out at 664.7 L. Further, under setting [8], the “Ae0‐24, amount of metformin excreted unchanged in urine, arithmetic mean (CV%)” value is recorded as 242.6 (26.5) mg; the “Fe0‐24, cumulative fraction of metformin excreted unchanged in urine, arithmetic mean (CV%)” value was 28.54% and 28.5 (26.5) %.

Consider `Cc1cc(Nc2ncnc3ccc(NC4=NC(C)(C)CO4)cc23)ccc1Oc1ccn2ncnc2c1` [Tucatinib], for which, in data set [1] (tucatinib 300 mg twice daily), the “Effect of tucatinib on GFR (iohexol clearance)” value is “unchanged; also recorded: unaffected”. The “Effect of tucatinib on cystatin C-based eGFR” value in data set [2] (tucatinib 300 mg twice daily) is recorded as “unchanged”. Besides, the “Proportion of subjects who experienced TEAEs” value in data set [3] is reported as 33.3%. Also, in data set [4] (tucatinib arm (with trastuzumab and capecitabine), HER2CLIMB), the “Patients with adverse event of elevated serum creatinine concentration” value is reported as 13.9%. Besides, the “Patients with increased creatinine as a laboratory abnormality” value in data set [4] (tucatinib arm, all grade 1 or 2) is reported as 33%. Also, where the note is “tucatinib 300 mg twice daily coadministered with metformin 850 mg”, the “Effect of tucatinib on metformin Cmax” value is “no effect”.

Source of the values: publication PMC7984390 (Journal of Clinical Pharmacology, 2020).
